This note sets out measurements from patent publication US20240398813A1, “PHARMACEUTICAL COMPOSITION FOR PREVENTING OR TREATING OVERACTIVE BLADDER” (GWANGJU INSTITUTE OF SCIENCE AND TECHNOLOGY, priority 2021, published 2024).

As a reminder, the EC50 is the concentration giving half of the maximal effect.

The target of test [1] is T1, hyperactive mutant BKCa channels (hSlo G803D/N806K) stably expressed in AD 293 cells (Homo sapiens, UniProt Q12791, G856D/N859K).
T1 construct: expressed in transfected cells
Put plainly: Cell-based fluorescence assay (FluxOR Potassium Ion Channel Assay) of BKCa channel activation. Further details: key to Channel activity increase for 80 s (ΔRFU) at 6 μM: ratio of ΔRFU (RFU at 100 s − 20 s) to the same ΔRFU for vehicle. How it is done: AD 293 cells, which are derivatives of the commonly used HEK 293 cell line and stably express hyperactive mutant BKCa channels (hSlo G803D/N806K) to sensitively detect the effect (Lee et al., 2013), were cultured in Dulbecco' modified Eagle medium (Hyclone, Logan, Utah, […]) supplemented with 10% fetal bovine serum, and selected with 1 mg/mL Geneticin (Gibco, Amarillo, TX, USA). 20,000 cells per well were seeded on a 96-well clear-bottom black plate (Corning, New York, NY, USA) coated with poly-D-lysine (Gibco). BKCa channel activity was measured using the cell-based fluorescence assay, FluxOR Potassium Ion Channel Assay (Thermo Fisher Scientific, Waltham, MA, USA). Experimental procedures were performed according to the manufacturer's instructions. The cells were treated with test compounds dissolved in assay buffer for 15 minutes. Fluorescence was measured using a FlexStation3 multimode microplate reader (Molecular Devices, Silicon Valley, CA, USA) and SoftMax Pro (Molecular Devices). Excitation and emission wavelengths were set to 485 nm and 528 nm, respectively. Fluorescence signals were acquired every 2 seconds for 120 seconds and normalized by the relative fluorescence unit (RFU). The efficacy of a channel activator was determined by analyzing changes (ΔRFU) in the RFU for 80 seconds after channel stimulation.
Activation effects of the synthesized compounds on BKCa channels were evaluated using cell-based fluorescence assay. NS11021 was used as the positive control. The effects were determined based on the initial rate (vi) of channel activation and the apparent EC50 value obtained from fitting data of the dose-response curve. Here, Vi means change values for 4 seconds at the start of channel opening (vi={RFU(t=24 s)−RFU(t=20 s)}/4 s). […]

The target of test [2] is T2, BKCa channels co-expressed with the β4 subunits (rSlo α + KCNMB4) (Rattus norvegicus, UniProt Q62976).
T2 construct: expressed in transfected cells; host or cells: Xenopus laevis oocytes, cRNA alpha:beta 1:12
In words: Macroscopic current recording, BKCa channels co-expressed with β4 subunits in Xenopus oocytes. Format: cell-based. The following applies: 10 μM. The source says:
The complete coding sequence (CDS) of each of rat KCNMA (rSlo α) (GenBank AF135265.1), KCNMB1 (rSlo 01) (GenBank FJ154955.1) and KCNMB4 (rSlo β4) (GenBank AY028605) was subcloned into pNBC2.0 or pNBC2.0. These vectors were designed to be expressed in Xenopus oocytes (Ha, T. S., Lim, H. H., Lee, G. E., Kim, Y. C., & Park, C. S. (2006). Electrophysiological characterization of benzofuroindole-induced potentiation of large-conductance Ca2+-activated K+ channels. Mol Pharmacol, 69(3), 1007-1014). The plasmid was linearized by NotI and complementary RNA (cRNA) was synthesized using the Ambion T7 mMESSAGE mMACHINE kit (Invitrogen, Carlsbad, CA, USA) according to the manufacturer's instructions. Xenopus laevis (KXRCR000001) was obtained from the Korea Xenopus Resource Center for Research (Chuncheon-si, Gangwon-do, Korea). Stage V-VI oocytes were surgically extracted from the ovarian lobes of X. laevis. A follicular cell layer was removed by culturing in Ca^2+-free oocyte Ringer's medium (86 mM NaCl, 1.5 mM KCl, 2 mM MgCl2 and 10 mM HEPES, pH 7.6) containing collagenase for 1.5 hours at room temperature. Oocytes without follicular layer were washed with ND-96 medium (96 mM NaCl, 2 mM KCl, 1.8 mM CaCl2), 1 mM MgCl2, 5 mM HEPES, […] gentamicin, pH 7.6). The prepared oocytes were stabilized overnight at 18° C. cRNA was injected into each oocyte (50 ng per oocyte) using a microdispenser (Drummond Scientific, Broomall, PA, USA). For co-expression of the β subunits, cRNA was mixed at a molar ratio of 1:12 (α:β) to induce sufficient co-assembly of the R subunits. After injection of cRNA, the oocytes were cultured in ND-96 medium for 1-3 days at 18° C. Before recording macroscopic currents, vitelline membranes of the oocytes were completely removed using fine forceps.
All macroscopic current recordings in the BKCa channels were performed using the gigaohm-seal patch-clamp method in an outside-out configuration (Ha et al., 2006). A patch pipette was made of borosilicate glass (WPI, Sarasota, FL, USA) and fire-polished by a resistance of 3-5 MQ. […]

T1 sequence (Q12791 whole entry G856D/N859K): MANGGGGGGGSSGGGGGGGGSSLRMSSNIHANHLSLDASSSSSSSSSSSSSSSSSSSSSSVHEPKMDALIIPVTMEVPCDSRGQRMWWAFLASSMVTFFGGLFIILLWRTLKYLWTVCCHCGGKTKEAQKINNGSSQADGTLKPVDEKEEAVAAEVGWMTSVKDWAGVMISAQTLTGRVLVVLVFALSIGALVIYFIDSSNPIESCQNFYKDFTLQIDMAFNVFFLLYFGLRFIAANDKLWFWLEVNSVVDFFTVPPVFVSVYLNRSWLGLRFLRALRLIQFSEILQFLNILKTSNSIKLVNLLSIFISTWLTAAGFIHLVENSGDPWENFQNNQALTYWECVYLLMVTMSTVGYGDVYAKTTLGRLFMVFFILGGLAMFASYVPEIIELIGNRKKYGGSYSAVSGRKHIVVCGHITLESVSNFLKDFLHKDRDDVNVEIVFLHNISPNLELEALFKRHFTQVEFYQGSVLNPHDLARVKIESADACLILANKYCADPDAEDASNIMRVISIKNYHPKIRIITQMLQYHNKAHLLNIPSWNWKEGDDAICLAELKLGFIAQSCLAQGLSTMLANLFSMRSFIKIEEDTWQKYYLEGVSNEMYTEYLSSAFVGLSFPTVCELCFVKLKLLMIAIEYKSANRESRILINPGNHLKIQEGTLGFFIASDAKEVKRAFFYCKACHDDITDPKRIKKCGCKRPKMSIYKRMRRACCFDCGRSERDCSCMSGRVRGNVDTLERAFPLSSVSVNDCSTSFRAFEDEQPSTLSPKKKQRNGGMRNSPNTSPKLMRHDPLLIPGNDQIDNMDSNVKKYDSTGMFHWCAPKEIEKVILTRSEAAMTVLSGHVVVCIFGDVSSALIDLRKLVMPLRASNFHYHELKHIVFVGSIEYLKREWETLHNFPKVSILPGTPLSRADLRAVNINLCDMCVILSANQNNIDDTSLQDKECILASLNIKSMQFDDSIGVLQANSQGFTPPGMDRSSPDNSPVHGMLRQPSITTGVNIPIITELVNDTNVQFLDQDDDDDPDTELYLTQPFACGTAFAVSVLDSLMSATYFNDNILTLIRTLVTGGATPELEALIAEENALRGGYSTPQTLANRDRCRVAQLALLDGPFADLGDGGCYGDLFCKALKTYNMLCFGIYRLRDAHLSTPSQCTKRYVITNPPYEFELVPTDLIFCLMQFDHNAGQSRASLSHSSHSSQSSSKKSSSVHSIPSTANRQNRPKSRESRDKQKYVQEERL
T2 sequence (Q62976 whole entry): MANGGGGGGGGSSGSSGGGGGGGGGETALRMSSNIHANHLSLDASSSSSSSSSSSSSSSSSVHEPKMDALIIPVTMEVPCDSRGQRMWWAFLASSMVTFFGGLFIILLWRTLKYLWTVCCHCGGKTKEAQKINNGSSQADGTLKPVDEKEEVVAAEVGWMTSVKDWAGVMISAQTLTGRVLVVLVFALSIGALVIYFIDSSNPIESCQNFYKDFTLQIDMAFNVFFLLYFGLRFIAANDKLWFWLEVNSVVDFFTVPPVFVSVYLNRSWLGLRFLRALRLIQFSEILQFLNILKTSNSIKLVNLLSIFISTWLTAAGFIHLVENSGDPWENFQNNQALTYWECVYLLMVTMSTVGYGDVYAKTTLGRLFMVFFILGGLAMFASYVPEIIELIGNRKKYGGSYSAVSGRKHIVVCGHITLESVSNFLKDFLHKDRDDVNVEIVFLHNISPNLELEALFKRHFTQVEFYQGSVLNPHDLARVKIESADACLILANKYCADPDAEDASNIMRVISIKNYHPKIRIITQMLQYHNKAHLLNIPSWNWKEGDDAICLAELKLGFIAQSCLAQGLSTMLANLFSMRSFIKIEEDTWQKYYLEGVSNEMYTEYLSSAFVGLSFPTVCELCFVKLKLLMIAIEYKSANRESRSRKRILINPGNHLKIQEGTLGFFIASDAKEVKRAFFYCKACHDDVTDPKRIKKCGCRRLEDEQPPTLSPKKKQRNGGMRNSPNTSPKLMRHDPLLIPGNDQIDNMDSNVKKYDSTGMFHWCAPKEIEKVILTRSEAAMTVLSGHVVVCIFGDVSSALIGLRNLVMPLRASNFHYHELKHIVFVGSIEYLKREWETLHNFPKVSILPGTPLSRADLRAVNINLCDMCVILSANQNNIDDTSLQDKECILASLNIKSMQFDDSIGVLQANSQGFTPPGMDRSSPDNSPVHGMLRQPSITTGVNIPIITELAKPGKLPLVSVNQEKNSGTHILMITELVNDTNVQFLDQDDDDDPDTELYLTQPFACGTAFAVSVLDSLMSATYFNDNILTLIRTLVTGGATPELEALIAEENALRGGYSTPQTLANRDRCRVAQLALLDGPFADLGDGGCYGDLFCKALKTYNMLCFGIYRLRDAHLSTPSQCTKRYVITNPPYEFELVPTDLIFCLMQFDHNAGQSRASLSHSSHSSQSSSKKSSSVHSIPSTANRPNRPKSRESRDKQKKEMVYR
T2 sequence (Q9ESK8 whole entry partner): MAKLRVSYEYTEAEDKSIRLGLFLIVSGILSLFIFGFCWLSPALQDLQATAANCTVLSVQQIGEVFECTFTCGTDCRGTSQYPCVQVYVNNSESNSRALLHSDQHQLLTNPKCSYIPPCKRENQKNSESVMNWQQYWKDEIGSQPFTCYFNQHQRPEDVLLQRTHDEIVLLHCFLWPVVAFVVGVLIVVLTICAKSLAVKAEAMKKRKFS

Consider `Cc1cccc(NC(=O)c2sc(=S)n3c2[nH]c(=O)c2cc(Br)ccc23)c1` [TTQC-1, 7-bromo-5-oxo-1-thioxo-N-(m-tolyl)-4,5-dihydro-1H-thiazolo[3,4-a]quinazoline-3-carboxamide], for which, in test [1] (2 μM TTQC-1, 1 μM paxillin and 0.1 μM iberiotoxin), the “increase in fluorescence induced by TTQC-1 in the presence of BKCa channel inhibitors” value was “removed”. Also, the “activation effect on the BKCa channel relative to LDD175” value in test [1] (3 μM) was found to be 1.6 times. Also, the “activation effect on the BKCa channels at a single concentration” value in test [1] (3 μM) was “most potent effect”. Besides, the “effect (ΔRFU) relative to vehicle” value in test [1] (6 μM) stood at 4.98±0.05 times. Also, in test [1] (6 μM, first 4 s after channel stimulation), the “Initial velocity of channel activation for 4 s (vi) at 6 μM” value came out at 9.77 s⁻¹. Besides, in test [1] (6 μM, normalized by vehicle), the “Channel activity increase for 80 s (ΔRFU) at 6 μM” value is 4.98. Also, the “concentration at which the Tl+ flux effect was saturated” value in test [1] (0.6-10 μM tested) was 6 µM. Moreover, the “TTQC-1 activation effect in the presence of 0.1 μM iberiotoxin” value in test [1] (TTQC-1 at concentrations above 4 μM) was “activated the BKCa channels”; in test [1] (TTQC-1 at concentrations below 2 μM) it was “eliminated”. Moreover, the EC50 in test [1] (fit of dose-response curve of initial rates, read-out: Apparent EC50 based on vi) worked out at 5.74 µM. For the same compound, the “effect on τ activation” value in test [2] is listed as “did not significantly affect”. The “increase of τ deactivation” value in test [2] (at 170 mV) is on record as 3.7 times. In addition, in test [2] (β4 co-expressed), the “shift of G-V curve to the left” value is on record as 7.12±0.65 mV.
